Measurements published in the supplement of paper PMC11451515.

Experiments:
Conditions in all cases: 48 h
P12-Ichikawa [1] = experiment: AUC of viability dose-response curve (% viability x log10 dose units); higher = less sensitive
Summary of the method: (§1)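 Library compounds in DMSO were applied for 48 h at 37°C at 11 threefold doses (47 μM to 0.79 nM) to medium-adapted leukemia cells in 1536-well plates holding 500 or 1000 cells/well. Luminescence from CellTiter-Glo One was normalised plate by plate against DMSO and cell-free wells. Area under the curve came from trapezoidal integration of a log-logistic fit, after scaling curves that rose above full viability and discarding those that failed quality control. The fit had four parameters and used log10 doses.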

NOMO1 [2] = experiment: as above
Summary of the method: as §1

SEM cells [3] = experiment: as above
Summary of the method: as §1

P12-Ichikawa [4] = experiment: cell viability relative to DMSO control; higher = less cytotoxic
Summary of the method: (§2)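 Viability is expressed as a percentage of DMSO wells within each plate, and cell-free wells serve as background. Seeding densities in the 1536-well plates (5 μl) were 500 cells/well for NOMO1 or SEM leukemia cells and 1000 cells/well for P12-Ichikawa. Each line was adapted for at least four passages in each medium. Library compounds in DMSO were pin-dosed at 47 μM to 0.79 nM (11 points, threefold), and CellTiter-Glo One luminescence was read after 48 h at 37°C.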

NOMO1 [5] = experiment: as above
Summary of the method: as §2

SEM cells [6] = experiment: as above
Summary of the method: as §2

CC(C)(C)OC(=O)Nc1ccc(-c2cc(C(=O)NCCCCCCC(=O)NO)no2)cc1
AUC of viability dose-response curve
Conditions	NOMO1 [2]	P12-Ichikawa [1]	SEM cells [3]
HPLM + 10% dialyzed FBS	379	333	343
RPMI 5 mM glucose + 10% FBS	346	297	333
RPMI 5 mM glucose + 10% dialyzed FBS	361	276	288

cell viability [%]
Conditions	NOMO1 [5]	P12-Ichikawa [4]	SEM cells [6]
HPLM + 10% dialyzed FBS, 0.000781 µM	88.5	90.9	87.5
HPLM + 10% dialyzed FBS, 0.00234 µM	89	94.6	87.7
HPLM + 10% dialyzed FBS, 0.00702 µM	84.4	92.3	95.7
HPLM + 10% dialyzed FBS, 0.0211 µM	89.8	95.2	102
HPLM + 10% dialyzed FBS, 0.0632 µM	98.3	93.3	77.4
HPLM + 10% dialyzed FBS, 0.19 µM	104	92.5	99.6
HPLM + 10% dialyzed FBS, 0.569 µM	104	92.8	102
HPLM + 10% dialyzed FBS, 1.71 µM	99.4	45.8	72.4
HPLM + 10% dialyzed FBS, 5.12 µM	68.7	40.7	33.5
HPLM + 10% dialyzed FBS, 15.4 µM	13.7	4.57	4.09
HPLM + 10% dialyzed FBS, 46.1 µM	4.88	4.67	4.02
RPMI 5 mM glucose + 10% FBS, 0.000781 µM	86.7	87.8	94.9
RPMI 5 mM glucose + 10% FBS, 0.00234 µM	80.1	85.6	88.1
RPMI 5 mM glucose + 10% FBS, 0.00702 µM	81.1	87	102
RPMI 5 mM glucose + 10% FBS, 0.0211 µM	84.3	88.1	101
RPMI 5 mM glucose + 10% FBS, 0.0632 µM	85.3	80.1	74.7
RPMI 5 mM glucose + 10% FBS, 0.19 µM	88.6	80	101
RPMI 5 mM glucose + 10% FBS, 0.569 µM	99.4	84.8	107
RPMI 5 mM glucose + 10% FBS, 1.71 µM	80.8	32.5	44.2
RPMI 5 mM glucose + 10% FBS, 5.12 µM	67.1	35.3	30.2
RPMI 5 mM glucose + 10% FBS, 15.4 µM	11.8	3.1	4.09
RPMI 5 mM glucose + 10% FBS, 46.1 µM	4.55	3.16	4.76
RPMI 5 mM glucose + 10% dialyzed FBS, 0.000781 µM	86.3	88.4	84.3
RPMI 5 mM glucose + 10% dialyzed FBS, 0.00234 µM	82.8	90.5	83.2
RPMI 5 mM glucose + 10% dialyzed FBS, 0.00702 µM	89.2	83.7	79.8
RPMI 5 mM glucose + 10% dialyzed FBS, 0.0211 µM	88.2	86.6	88.9
RPMI 5 mM glucose + 10% dialyzed FBS, 0.0632 µM	99.3	82.6	79.7
RPMI 5 mM glucose + 10% dialyzed FBS, 0.19 µM	92.1	85.4	90.7
RPMI 5 mM glucose + 10% dialyzed FBS, 0.569 µM	101	83	87.7
RPMI 5 mM glucose + 10% dialyzed FBS, 1.71 µM	72.9	9.73	28.1
RPMI 5 mM glucose + 10% dialyzed FBS, 5.12 µM	73.8	7.46	20.1
RPMI 5 mM glucose + 10% dialyzed FBS, 15.4 µM	13.1	3.76	3.52
RPMI 5 mM glucose + 10% dialyzed FBS, 46.1 µM	4.05	3.52	3.79

C[C@H](NCc1ccc(OCc2cccc(F)c2)cc1)C(N)=O
AUC of viability dose-response curve
Conditions	NOMO1 [2]	P12-Ichikawa [1]	SEM cells [3]
HPLM + 10% dialyzed FBS	445	450	323
RPMI 5 mM glucose + 10% FBS	461	443	325
RPMI 5 mM glucose + 10% dialyzed FBS	454	443	290

cell viability [%]
Conditions	NOMO1 [5]	P12-Ichikawa [4]	SEM cells [6]
HPLM + 10% dialyzed FBS, 0.000781 µM	87.6	95.1	81
HPLM + 10% dialyzed FBS, 0.00234 µM	125	110	102
HPLM + 10% dialyzed FBS, 0.00702 µM	121	107	102
HPLM + 10% dialyzed FBS, 0.0211 µM	113	123	107
HPLM + 10% dialyzed FBS, 0.0632 µM	116	116	97.6
HPLM + 10% dialyzed FBS, 0.19 µM	116	122	76.7
HPLM + 10% dialyzed FBS, 0.569 µM	124	114	58
HPLM + 10% dialyzed FBS, 1.71 µM	133	115	42.3
HPLM + 10% dialyzed FBS, 5.12 µM	97.7	104	29.6
HPLM + 10% dialyzed FBS, 15.4 µM	95.1	98	30.7
HPLM + 10% dialyzed FBS, 46.1 µM	18.4	17.8	9.65
RPMI 5 mM glucose + 10% FBS, 0.000781 µM	110	99.9	102
RPMI 5 mM glucose + 10% FBS, 0.00234 µM	109	105	99.9
RPMI 5 mM glucose + 10% FBS, 0.00702 µM	106	112	106
RPMI 5 mM glucose + 10% FBS, 0.0211 µM	108	119	100
RPMI 5 mM glucose + 10% FBS, 0.0632 µM	106	124	106
RPMI 5 mM glucose + 10% FBS, 0.19 µM	117	126	92.1
RPMI 5 mM glucose + 10% FBS, 0.569 µM	122	134	60.1
RPMI 5 mM glucose + 10% FBS, 1.71 µM	111	109	44.1
RPMI 5 mM glucose + 10% FBS, 5.12 µM	113	103	26
RPMI 5 mM glucose + 10% FBS, 15.4 µM	104	87.4	22.1
RPMI 5 mM glucose + 10% FBS, 46.1 µM	50.3	32.9	10.9
RPMI 5 mM glucose + 10% dialyzed FBS, 0.000781 µM	110	96	78.5
RPMI 5 mM glucose + 10% dialyzed FBS, 0.00234 µM	114	118	99.8
RPMI 5 mM glucose + 10% dialyzed FBS, 0.00702 µM	125	109	102
RPMI 5 mM glucose + 10% dialyzed FBS, 0.0211 µM	110	114	85.1
RPMI 5 mM glucose + 10% dialyzed FBS, 0.0632 µM	107	108	102
RPMI 5 mM glucose + 10% dialyzed FBS, 0.19 µM	123	116	67.1
RPMI 5 mM glucose + 10% dialyzed FBS, 0.569 µM	111	117	47.6
RPMI 5 mM glucose + 10% dialyzed FBS, 1.71 µM	116	114	27.9
RPMI 5 mM glucose + 10% dialyzed FBS, 5.12 µM	99.7	102	21
RPMI 5 mM glucose + 10% dialyzed FBS, 15.4 µM	97.4	80.5	20.6
RPMI 5 mM glucose + 10% dialyzed FBS, 46.1 µM	62.8	33.4	13.2
